Experimental data from PubChem BioAssay (NCI).
Where “and” joins values, the source holds several entries; their conditions need not be identical. Equal entries are not always repeated.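 Each compound was tested at five concentrations against cells in 96-well plates for 48 hours. GI50: concentration for 50% inhibition of growth. Definition used: TGI = concentration required for complete inhibition of growth.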

How the values were obtained:
Assay in all cases: DTP human tumour cell line panel, 48 h
SW-620 colon = test system: SW-620 colon
DLD-1 colon = test system: DLD-1 colon
SNB-75 CNS = test system: SNB-75 CNS
SK-MEL-5 melanoma = test system: SK-MEL-5 melanoma
KM12 colon = test system: KM12 colon
HL-60(TB) leukemia = test system: HL-60(TB) leukemia
NCI-H522 lung = test system: NCI-H522 lung
MOLT-4 leukemia = test system: MOLT-4 leukemia
EKVX NSCLC = test system: EKVX NSCLC
DMS 114 small cell lung = test system: DMS 114 small cell lung

SMILES	TGI (SW-620 colon)	TGI (DLD-1 colon)	TGI (SNB-75 CNS)	TGI (SK-MEL-5 melanoma)	TGI (KM12 colon)	TGI (HL-60(TB) leukemia)	TGI (NCI-H522 lung)	TGI (MOLT-4 leukemia)	TGI (EKVX NSCLC)	TGI (DMS 114 small cell lung)	GI50 (DMS 114 small cell lung)	GI50 (SW-620 colon)	GI50 (SNB-75 CNS)	GI50 (SK-MEL-5 melanoma)	GI50 (KM12 colon)	GI50 (HL-60(TB) leukemia)	GI50 (NCI-H522 lung)	GI50 (MOLT-4 leukemia)	GI50 (EKVX NSCLC)
Cc1ccc(NC(=O)CCC(CC(=O)C(C)(C)C)=NNC(=O)C(=O)NN)cc1C	> 100 µM	> 100 µM	> 100 µM	> 100 µM	> 100 µM	> 100 µM	> 100 µM	> 100 µM	> 100 µM	–	–	–	–	–	–	–	–	–	–
C/C(=C\C(C)COCc1ccccc1)[C@H](COCc1ccccc1)OCc1ccccc1 (some centres not stated)	> 100 µM	–	> 100 µM	> 100 µM	> 100 µM	–	> 100 µM	> 100 µM	> 100 µM	> 100 µM	–	–	–	–	–	–	–	–	–
CCOC(=O)/C(=C\c1ccc(O)c(OC)c1)C(=O)c1ccccc1	32.4 µM	38.2 µM	89.5 µM	29.8 µM	34.3 µM	52.4 µM	21.9 µM	> 52.2 µM	> 53.3 µM	–	–	–	–	–	–	–	–	–	–
CCCCCCCCCCCCCC(=O)O[C@H]1CC[C@H](NC(=O)[C@H](OC)[C@H](O)[C@@H](O)[C@H](O)/C=C/C(C)C)C(=O)NC1	11.2 µM and 12.8 µM	–	38.8 µM	1.37 µM and 0.25 µM	1.19 µM and 7.64 µM	–	–	16.9 µM and 14.5 µM	36.8 µM and 23.4 µM	–	< 0.001 µM	–	–	–	–	–	–	–	–
CC1(C)COC(C23C4C5C2C2C3C4C52I)=N1 (configuration not stated)	> 100 µM	> 100 µM	–	> 100 µM	–	–	–	> 100 µM	> 100 µM	> 100 µM	–	–	–	–	–	–	–	–	–
CCOC(C)C(/C=N/NC(N)=S)=NNC(N)=S (configuration not stated)	> 100 µM	> 100 µM	> 89.4 µM	> 100 µM	> 100 µM	> 100 µM	> 100 µM	> 100 µM	> 100 µM	–	–	–	–	–	–	–	–	–	–
COC(=O)Nc1nc2ccc(Oc3ccc(NC(=O)Nc4cccc(C(=O)O)c4)cc3)cc2[nH]1	> 25 µM	–	> 25 µM	> 21 µM	> 21.2 µM	17.4 µM	> 19 µM	> 25 µM	> 25 µM	–	–	7.43 µM	9.98 µM	3.24 µM	5.26 µM	6.1 µM	4 µM	9.99 µM	> 23 µM
Cn1cncc1[C@@](N)(c1ccc(Cl)cc1)c1ccc2c(c1)c(-c1cccc(Cl)c1)cc(=O)n2C	12.7 µM	–	18.9 µM	6.83 µM	7.02 µM	4.62 µM	5.05 µM	7.97 µM	13.1 µM	–	–	1.82 µM	4.68 µM	1.8 µM	1.18 µM	1.29 µM	0.655 µM	2.33 µM	2.22 µM
O=C1CC(c2ccc(N3CCOCC3)cc2)(c2ccsc2)NC(=O)C1Sc1ccccc1Cl (configuration not stated)	> 100 µM	–	> 100 µM	> 100 µM	> 100 µM	> 100 µM	> 100 µM	> 100 µM	> 100 µM	–	–	21.6 µM	54.9 µM	36.6 µM	43.7 µM	> 100 µM	13.8 µM	46.9 µM	> 100 µM
Nc1nc(N)c(N=O)c(Nc2ccc(O)cc2)n1	> 100 µM	–	> 67.7 µM	> 100 µM	> 100 µM	> 71.3 µM	> 56.6 µM	> 60.9 µM	> 100 µM	–	–	–	–	–	–	–	–	–	–
CC(C)(C)NC(C1=CC(C)(C)c2ccccc2C1=O)c1ccccc1 (configuration not stated)	2.92 µM	–	2.57 µM	2.84 µM	2.73 µM	2.9 µM	2.41 µM	4.6 µM	4.61 µM	–	–	1.53 µM	1.02 µM	1.52 µM	1.42 µM	0.868 µM	1.1 µM	1.48 µM	1.67 µM
COc1cc2c3c(n(CCCCOC(=O)C(F)(F)F)c(=O)c2cc1OC)-c1cc2c(cc1C3=O)OCO2	> 100 µM	–	> 100 µM	> 100 µM	> 100 µM	> 100 µM	> 100 µM	> 77.3 µM	> 100 µM	–	–	> 100 µM	> 86.8 µM	> 100 µM	> 100 µM	> 100 µM	–	10.1 µM	> 100 µM
COc1ccc(C(=O)C(c2ccc(OC)cc2)C2(O)C(=O)Nc3ccccc32)cc1 (configuration not stated)	> 100 µM	> 100 µM	> 100 µM	–	> 100 µM	> 100 µM	> 100 µM	> 100 µM	> 100 µM	–	–	–	–	–	–	–	–	–	–
CN(C)CCNC(=O)c1cc2ccccc2c2nc3ccccc3nc12	–	3.59 µM	4.26 µM	5.5 µM	2.89 µM	–	> 100 µM	0.487 µM	7.37 µM	2.43 µM	–	–	–	–	–	–	–	–	–
CCCN(CCC)C(=O)C1=Cc2ccc(-c3ccc(C(=O)N4CCCC4)cc3)cc2N=C(N)C1	31.8 µM	–	30.6 µM	10.9 µM	21.4 µM	15.6 µM	18.8 µM	64.3 µM	57.1 µM	–	–	7.1 µM	3.8 µM	2.91 µM	5.01 µM	3.46 µM	4.68 µM	10.5 µM	11.8 µM
